SMILES strings stand for the structures. Structures can show the parent of a compound that is named as a salt. Where two headings read alike, the source gives them in different places.

One data set relates to mouse PCLS. Put plainly: Viability of mouse PCLS by ATP content (ATP bioluminescence, normalized to protein). The class given is cell-based. The settings on record: for IC50 / CC50: Mus musculus; for IC 5% (best-fit) / IC 25% (best-fit): Table S3, unit not given; for Enhancement of drug toxicity by addition of the BA mixture: extra sum of squares F-test of fits with vs w/o BA. The method, then:
(§1) In short, freshly prepared PCLS were transferred to 12-well plates (Greiner bio-one GmbH, Austria), one slice per well. Each well was filled with 1.3 mL pre-heated (37 ℃) and oxygenated (80%) Williams Medium E (1X, glutaMAX-1), which had been supplemented with 25 mM D-glucose monohydrate and 50 μg/ml Gentamicin (denoted as WME GG). […] The DMSO concentration used was below 0.5% in the incubation medium, equivalent to DMSO concentrations in solutions prepared by dilution of BA stock solutions with WME GG.
ATP was extracted by homogenization, followed by the centrifugation of the homogenate (16,000g at 4 °C for 5 min). The supernatant was collected, and the pellet was left to dry. An ATP Bioluminescence Assay Kit (Roche Diagnostics, Mannheim, Germany) was used to determine ATP content in the supernatant. The dried pellet was used to determine the total protein content of the PCLS using the Bio-Rad DC Protein Assay (Bio-Rad, Munich, Germany). The obtained ATP values were then normalized for the total protein content of the slice.
A minimum of three mouse livers was used for each experiment, using PCLS in triplicate from each liver. GraphPad Prism 8.4.3 was used to perform statistical analysis, using a Student’s unpaired two-tailed T-test to compare two means, or a one-way ANOVA to compare multiple means. One-way ANOVA was followed by either Tukey’s multiple comparisons test to compare all means within a dataset, or Dunnett’s multiple comparisons test to compare all means with their own control mean. Nonlinear regression analysis was followed by an extra sum of squares F-test to compare two fits. mRNA expression levels are shown as Log2(fold induction) (− ΔΔCt), though the data was statistically analyzed using the cycle threshold (ΔCt) values. Differences between groups were considered significant when p < 0.05.

Another data set concerns Mrp2 (Abcc2). Put plainly: qRT-PCR gene expression in mouse PCLS: Mrp2. The class given is cell-based. The following applies: 48 h, in the presence and absence of BAs. On the procedure:
as §1
(§2) Three PCLS incubated under a given condition were pooled in a 1.5-mL Rnase-free test tube, snap-frozen in liquid nitrogen, and stored at – 80 °C until analysis. RNA was isolated using a FavorPrep Tissue Total RNA Mini Kit (Favorgen, Vienna, Austria). Subsequently, the RNA yield was quantified using a NanoDrop One instrument (Thermo Fisher Scientific, Massachusetts, USA). Isolated RNA was reverse-transcribed to cDNA using a cDNA synthesis kit (Reverse Transcription System, Promega, Benelux B.V.). […]
(§3) qRT-PCR was used to determine the relative mRNA expression levels for the mouse target genes: Bsep (Abcb11), Mrp2 (Abcc2), Mrp3 (Abcc3), Mrp4 (Abcc4), Ntcp (Slc10a1), Fxr (Nr1h4), Cyp7a1 (Cyp7a1), Collagen type 1a1 (Col1a1), Hsp47 (Serpinh1). […] Samples were measured in duplicates. […] Results are expressed as log2(fold change).

The subject of the next data set is Mrp3 (Abcc3). Put plainly: qRT-PCR gene expression in mouse PCLS: Mrp3. The class given is cell-based. The following applies: 48 h, in the presence and absence of BAs. On the procedure: (§4) In short, freshly prepared PCLS were transferred to 12-well plates (Greiner bio-one GmbH, Austria), one slice per well.
(§5) Three PCLS incubated under a given condition were pooled in a 1.5-mL Rnase-free test tube, snap-frozen in liquid nitrogen, and stored at – 80 °C until analysis. RNA was isolated using a FavorPrep Tissue Total RNA Mini Kit (Favorgen, Vienna, Austria). Subsequently, the RNA yield was quantified using a NanoDrop One instrument (Thermo Fisher Scientific, Massachusetts, USA). Isolated RNA was reverse-transcribed to cDNA using a cDNA synthesis kit (Reverse Transcription System, Promega, Benelux B.V.). The cDNA samples were subsequently loaded in the thermal cycler with a program set to 22 °C for 10 min, 42 °C for 15 min, and 95 °C for 5 min.
qRT-PCR was used to determine the relative mRNA expression levels for the mouse target genes: Bsep (Abcb11), Mrp2 (Abcc2), Mrp3 (Abcc3), Mrp4 (Abcc4), Ntcp (Slc10a1), Fxr (Nr1h4), Cyp7a1 (Cyp7a1), Collagen type 1a1 (Col1a1), Hsp47 (Serpinh1). Primer sequences of the genes tested are given in Supplementary Table S1. QRT-PCR was performed using, the dye, FastStart Universal SYBR Green Master Mix (Roche Diagnostics Netherlands B.V., Almere, the Netherlands) with the ViiA™ 7 Real-Time PCR System (Applied Biosystems, Bleiswijk, the Netherlands). […] Samples were measured in duplicates. […] Results are expressed as log2(fold change).

The subject of data set [1] is Collagen type 1a1 (Col1a1). Put plainly: qRT-PCR gene expression in mouse PCLS: Col1a1. Type of data set: cell-based. The settings on record: 48 h. On the procedure: as §1, §5
qRT-PCR was used to determine the relative mRNA expression levels for the mouse target genes: Bsep (Abcb11), Mrp2 (Abcc2), Mrp3 (Abcc3), Mrp4 (Abcc4), Ntcp (Slc10a1), Fxr (Nr1h4), Cyp7a1 (Cyp7a1), Collagen type 1a1 (Col1a1), Hsp47 (Serpinh1). Primer sequences of the genes tested are given in Supplementary Table S1. QRT-PCR was performed using, the dye, FastStart Universal SYBR Green Master Mix (Roche Diagnostics Netherlands B.V., Almere, the Netherlands) with the ViiA™ 7 Real-Time PCR System (Applied Biosystems, Bleiswijk, the Netherlands). The first cycle constituted 10 min at 95 °C, followed by 40 cycles of 15 s at 95 °C, 30 s at 60 °C and 30 s at 72 °C, followed by 1 cycle dissociation stage (15 s: 95 °C, 60 °C and 95 °C). A minimum of four mouse livers was used for each experiment, using three PCLS per condition. Samples were measured in duplicates. […] Results are expressed as log2(fold change).

The next data set relates to Hsp47 (Serpinh1). The data set can be described thus: qRT-PCR gene expression in mouse PCLS: Hsp47. The class given is cell-based. The following applies: 48 h, in the presence of BAs, highest concentration (30 µM CPZ). On the procedure: as §1, §2, §3
The next data set has as its system Fxr (Nr1h4). Put plainly: qRT-PCR gene expression in mouse PCLS: Fxr. The class given is cell-based. The settings on record: 48 h, 30 µM CPZ in the presence of the humanized BA mixture. The method, then:
as §1, §2, §3

For another data set, the system named is Bsep. The data set can be described thus: Western blot of Bsep protein in mouse PCLS. The class given is cell-based. The settings on record: 48 h. On the procedure: as §4
In brief, the protein was extracted from three slices per treatment, and protein samples were denatured (75 °C for 10 min). […] Gels were blotted onto 0.2-μm polyvinylidene fluoride membranes using a Trans-Blot Turbo Transfer System (Bio-Rad, Munich, Germany), set to ramp up to 25 V in 15 min, at a constant current of 2.5 A. Membranes were then treated for 1 h with a protein blocking agent to prevent non-specific binding of antibodies, and incubated at 4 °C overnight with Bsep primary antibody (monoclonal antibody rabbit anti-Bsep, 1:2500, Tebu-Bio, Le Perray-en-Yvelines, France), Ntcp primary antibody (polyclonal antibody, rabbit anti-Ntcp, 1:2000, Tebu-Bio), and vinculin (116 kDa) primary antibody (monoclonal antibody, mouse anti-Vinculin, 1:500, Santa Cruz, California, USA). The following day, membranes were incubated with matching secondary antibodies for 1 h (Goat anti-rabbit HRP (Bsep and Ntcp), 1:2000; Rabbit anti-mouse HRP (vinculin), 1:5000, Dako, Santa Clara). Proteins were then visualized by adding Clarity Western ECL blotting substrate (Bio-Rad, Munich, Germany) and using a ChemiDoc Touch Imaging System (BioRad, Munich, Germany) for imaging of the resulting chemiluminescence. Afterward, Bsep and Ntcp expression was normalized by vinculin expression.

The test system of data set [2] is rat PCLS. The arrangement: method as in Starokozhko et al. [2017a]. The settings on record: in the presence of BAs, ref Starokozhko et al. [2017a]; cited from earlier work.
Data set [3] relates to rat PCLS. The arrangement: method as in Starokozhko et al. [2017a]. The settings on record: control 156.5, ref Starokozhko et al. [2017a]; cited from earlier work.
Another data set deals with mouse Bsep protein. The arrangement: method as in Noe et al. [2001]. The settings on record: ref Noe et al. [2001]; cited from earlier work.
[4] abbreviates: non-toxic concentration (CPZ 15 μM, CSA 1 μM, GB 25 μM), vs control with no drug and no BAs.

On to `CN(C)CCCN1c2ccccc2Sc2ccc(Cl)cc21` [CPZ, Chlorpromazine hydrochloride], for which the IC50 with mouse PCLS (48 h, read-out: IC 50% (best-fit), Table S3, mouse PCLS, 48 h, w/o BA, unit not printed in table (µM in Fig. 4)) is 29.1 µM; in the data set on mouse PCLS (48 h, read-out: IC 50% (best-fit), Table S3, mouse PCLS, 48 h, with BA, unit not printed in table (µM in Fig. 4)) it was 21.6 µM; in the data set with mouse PCLS (48 h, read-out: IC50 (50% loss in viability, ATP content), mouse PCLS, 48 h, one value or range given for with and w/o BA), 22 to 29 µM. The CC50 in the data set with mouse PCLS (48 h, read-out: IC50 (50% loss in viability, ATP content), mouse PCLS, 48 h, w/o BA mixture) is 29 µM; with mouse PCLS (48 h, read-out: IC50 (50% loss in viability, ATP content), mouse PCLS, 48 h, with BA mixture), 22 µM. The “IC 5% (best-fit)” value in the data set on mouse PCLS (5% decrease in ATP content, 48 h, w/o BA) is listed as 15.4; in the data set on mouse PCLS (5% decrease in ATP content, 48 h, with BA), 11.4. Besides, the “IC 25% (best-fit)” value in the data set on mouse PCLS (25% decrease in ATP content, 48 h, w/o BA) amounted to 22.9; with mouse PCLS (25% decrease in ATP content, 48 h, with BA), 17.0. The “Enhancement of drug toxicity by addition of the BA mixture” value in the data set with mouse PCLS (mouse PCLS, 48 h) is “enhanced the toxicity of CPZ considerably”. The Mrp2 gene expression result with Mrp2 (Abcc2) was “reduces”. Further, in the data set on Mrp3 (Abcc3), the Mrp3 gene expression entry was “reduces”. The Col1a1 gene expression entry in data set [1] (in the absence of BAs, highest concentration of CPZ) is recorded as “significant increase”; in data set [1] (in the presence of BAs, highest concentration (30 µM CPZ)), “significantly increased”. The Hsp47 gene expression entry in the data set with Hsp47 (Serpinh1) is recorded as “significantly increased”. Also, the Fxr gene expression entry in the data set with Fxr (Nr1h4) was “small, but not significant, increase”. In addition, the “Bsep protein expression (western blot band intensity)” value is “less pronounced” with Bsep (non-toxic concentration (CPZ 15 μM, CSA 1 μM), in the presence of the BA mixture) and “significant decrease in band intensity” with Bsep (setting [4]). For the same compound, the “Concentration reaching severe toxicity” value in the data set with rat PCLS [2] is 36 µM.
For the compound `COc1ccc(Cl)cc1C(=O)NCCc1ccc(S(=O)(=O)NC(=O)NC2CCCCC2)cc1` [GB, Glibenclamide], the IC50 in the data set with mouse PCLS (48 h, read-out: IC50 (50% loss in viability, ATP content)) is 70 µM. Also, the IC50 with mouse PCLS (read-out: IC 50% (best-fit)) came to 69.7 µM. In the data set on mouse PCLS (IC the same with and w/o BA), the “IC 5% (best-fit)” value is recorded as 37.9 and the “IC 25% (best-fit)” value amounted to 55.5. Also, in the data set on mouse PCLS (mouse PCLS, 48 h), the “Enhancement of drug toxicity by addition of the BA mixture” value is “not observed”. Besides, the Mrp2 gene expression entry in the data set on Mrp2 (Abcc2) was “increases the expression of Mrp2”. The Col1a1 gene expression result in [1] (both with and without BAs present) is reported as “reduced Col1a1 expression in a concentration-dependent manner”. The “Bsep protein expression (western blot band intensity)” value in the data set with Bsep (setting [4]) is “did not induce any significant changes”. The “Concentration reaching severe toxicity” value in the data set with rat PCLS [2] was 180 µM. For the same compound, the “Intracellular GCA concentration after drug incubation” value in the data set on rat PCLS [3] is reported as 364.3 pmol/mg protein. In the data set on mouse Bsep protein, the “Inhibition of the mouse Bsep protein” value was “competitively inhibit”.

The values above are taken from publication PMC9325861, “Mouse precision-cut liver slices as an ex vivo model to study drug-induced cholestasis” (Archives of Toxicology, 2022).
